Experimental data published in PubChem BioAssay (NCI).
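Exposure lasted 48 hours, with cells grown in 96-well plates and compounds tested at five concentrations. TGI is the concentration that stops growth completely.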

Key:
Assay in all cases: NCI tumour cell line growth inhibition, 48 h
MDA-N = tested on: MDA-N
T-47D breast = tested on: T-47D breast
A549 NSCLC = tested on: A549 NSCLC
ACHN renal = tested on: ACHN renal
DU-145 prostate = tested on: DU-145 prostate
MALME-3M melanoma = tested on: MALME-3M melanoma
HCT-15 colon = tested on: HCT-15 colon
PC-3 prostate = tested on: PC-3 prostate
HOP-62 NSCLC = tested on: HOP-62 NSCLC
NCI/ADR-RES ovarian = tested on: NCI/ADR-RES ovarian
KM12 colon = tested on: KM12 colon
MDA-MB-435 = tested on: MDA-MB-435
A498 renal = tested on: A498 renal
HCT-116 colon = tested on: HCT-116 colon
EKVX NSCLC = tested on: EKVX NSCLC
NCI-H460 lung = tested on: NCI-H460 lung
SW-620 colon = tested on: SW-620 colon
MDA-MB-231 breast = tested on: MDA-MB-231 breast
SK-OV-3 ovarian = tested on: SK-OV-3 ovarian
HCC-2998 colon = tested on: HCC-2998 colon
OVCAR-8 ovarian = tested on: OVCAR-8 ovarian
MOLT-4 leukemia = tested on: MOLT-4 leukemia
OVCAR-3 ovarian = tested on: OVCAR-3 ovarian
BT-549 breast = tested on: BT-549 breast
OVCAR-5 ovarian = tested on: OVCAR-5 ovarian
U251 CNS = tested on: U251 CNS
M14 melanoma = tested on: M14 melanoma
SNB-19 CNS = tested on: SNB-19 CNS
K-562 leukemia = tested on: K-562 leukemia
SF-295 CNS = tested on: SF-295 CNS
UO-31 renal = tested on: UO-31 renal
HOP-92 NSCLC = tested on: HOP-92 NSCLC
NCI-H23 lung = tested on: NCI-H23 lung
SF-268 CNS = tested on: SF-268 CNS
HT29 colon = tested on: HT29 colon
UACC-62 melanoma = tested on: UACC-62 melanoma
CCRF-CEM leukemia = tested on: CCRF-CEM leukemia
SK-MEL-5 melanoma = tested on: SK-MEL-5 melanoma
SF-539 CNS = tested on: SF-539 CNS
MCF7 breast = tested on: MCF7 breast
SK-MEL-2 melanoma = tested on: SK-MEL-2 melanoma
786-0 renal = tested on: 786-0 renal
HS 578T breast = tested on: HS 578T breast
TK-10 renal = tested on: TK-10 renal
NCI-H226 lung = tested on: NCI-H226 lung
SK-MEL-28 melanoma = tested on: SK-MEL-28 melanoma
SN12C renal = tested on: SN12C renal
IGROV1 ovarian = tested on: IGROV1 ovarian
RXF 393 renal = tested on: RXF 393 renal
RPMI-8226 leukemia = tested on: RPMI-8226 leukemia
NCI-H522 lung = tested on: NCI-H522 lung
HL-60(TB) leukemia = tested on: HL-60(TB) leukemia
OVCAR-4 ovarian = tested on: OVCAR-4 ovarian
SNB-75 CNS = tested on: SNB-75 CNS
COLO 205 colon = tested on: COLO 205 colon
CAKI-1 renal = tested on: CAKI-1 renal
UACC-257 melanoma = tested on: UACC-257 melanoma
LOX IMVI melanoma = tested on: LOX IMVI melanoma

Measured: TGI

CCOC(=O)Cn1c(C)nc2nn(Cc3ccccc3)cc2c1=O
> 100 µM: MDA-N | T-47D breast | A549 NSCLC | ACHN renal | DU-145 prostate | MALME-3M melanoma | HCT-15 colon | PC-3 prostate | HOP-62 NSCLC | NCI/ADR-RES ovarian | KM12 colon | MDA-MB-435 | A498 renal | HCT-116 colon | EKVX NSCLC | NCI-H460 lung | SW-620 colon | MDA-MB-231 breast | SK-OV-3 ovarian | HCC-2998 colon | OVCAR-8 ovarian | MOLT-4 leukemia | OVCAR-3 ovarian | BT-549 breast | OVCAR-5 ovarian | U251 CNS | M14 melanoma | SNB-19 CNS | K-562 leukemia | SF-295 CNS | UO-31 renal | HOP-92 NSCLC | NCI-H23 lung | SF-268 CNS | HT29 colon | UACC-62 melanoma | CCRF-CEM leukemia | SK-MEL-5 melanoma | SF-539 CNS | MCF7 breast | SK-MEL-2 melanoma | 786-0 renal | HS 578T breast | TK-10 renal | NCI-H226 lung | SK-MEL-28 melanoma | SN12C renal | IGROV1 ovarian | RXF 393 renal

NC(=O)Nc1n[nH]c(-c2ccccc2)n1
> 100 µM: MDA-N | T-47D breast | A549 NSCLC | ACHN renal | DU-145 prostate | MALME-3M melanoma | RPMI-8226 leukemia | HCT-15 colon | PC-3 prostate | HOP-62 NSCLC | NCI/ADR-RES ovarian | NCI-H522 lung | KM12 colon | MDA-MB-435 | HL-60(TB) leukemia | A498 renal | HCT-116 colon | EKVX NSCLC | NCI-H460 lung | SW-620 colon | MDA-MB-231 breast | SK-OV-3 ovarian | HCC-2998 colon | OVCAR-8 ovarian | MOLT-4 leukemia | OVCAR-3 ovarian | BT-549 breast | OVCAR-5 ovarian | U251 CNS | M14 melanoma | SNB-19 CNS | K-562 leukemia | SF-295 CNS | UO-31 renal | NCI-H23 lung | SF-268 CNS | HT29 colon | UACC-62 melanoma | OVCAR-4 ovarian | CCRF-CEM leukemia | SK-MEL-5 melanoma | SF-539 CNS | SNB-75 CNS | COLO 205 colon | CAKI-1 renal | UACC-257 melanoma | MCF7 breast | SK-MEL-2 melanoma | 786-0 renal | HS 578T breast | TK-10 renal | LOX IMVI melanoma | NCI-H226 lung | SK-MEL-28 melanoma | SN12C renal | IGROV1 ovarian | RXF 393 renal
